Source: patent publication US20110039762A1, “TARGETED ANTIMICROBIAL MOIETIES” (C3 JIAN, INC., priority 2009, published 2011)
“Also recorded” adds a separate entry of the source.

What follows are substances tested on microorganisms (e.g., bacteria, yeasts, fungi) (assay: Targeting peptide binding to target microorganisms (Table 3)). Conditions: microorganism(s) the targeting peptide binds; binding in aqueous buffers depending on peptide solubility, preferably 1x PBS.
With “PF-323 (ARESIEKSHVPVDATIVGVVDSFEVFDE; Peptide with targeting and/or antimicrobial activity)” the “Target(s)” value was “S. mutans”.
In the case of “PF-324 (HFSLL; Peptide with targeting and/or antimicrobial activity)”, the “Target(s)” value is reported as “C. difficile”.
With “PF-325 (LTIDEKLRNHR; Peptide with targeting and/or antimicrobial activity)” the “Target(s)” value was “S. mutans; also recorded: E. coli”.
With “PF-326 (VIVGNLGAQKEKRNDTPISAKKDIMGDKTVRVRADLHH; Peptide with targeting and/or antimicrobial activity)” the “Target(s)” value was “S. mutans; also recorded: E. coli”.
“PF-328 (NGNEKAFSEVENLVK; Peptide with targeting and/or antimicrobial activity)” was tested, and the “Target(s)” value was “S. mutans”.
“PF-329 (IGILFDKSVRKY; Peptide with targeting and/or antimicrobial activity)” was tested, and the “Target(s)” value was “S. epidermidis”.
In the case of “PF-333 (YMTKKLVEMAEQQMAGKSNR; Peptide with targeting and/or antimicrobial activity)”, the “Target(s)” value is reported as “S. mutans”.
In the case of “PF-334 (QQYLILDRM; Peptide with targeting and/or antimicrobial activity)”, the “Target(s)” value is reported as “S. epidermidis; also recorded: C. difficile”.
In the case of “PF-337 (YMTKKLVEMAERQMAGK; Peptide with targeting and/or antimicrobial activity)”, the “Target(s)” value is reported as “S. epidermidis”.
“PF-338 (KGTSCPDQLSKAIRQSI; Peptide with targeting and/or antimicrobial activity)” was tested, and the “Target(s)” value was “S. mutans”.
“PF-340 (VKDVLLELFNKIIGA; Peptide with targeting and/or antimicrobial activity)” was tested, and the “Target(s)” value was “S. mutans; also recorded: E. coli”.
For “PF-348 (ESASAAEWYNPNMNVKKAICMG; Peptide with targeting and/or antimicrobial activity)”, the “Target(s)” value was “B. subtilis; also recorded: E. coli; also recorded: P. aeruginosa; also recorded: C. albicans; also recorded: E. faecalis; also recorded: C. jejuni”.
“PF-351 (YLFFKGKKVAEEEATKDEVKR; Peptide with targeting and/or antimicrobial activity)” was tested, and the “Target(s)” value was “S. mutans”.
With “PF-352 (RVKKIG; Peptide with targeting and/or antimicrobial activity)” the “Target(s)” value was “C. jeikeium”.
For “PF-359 (MTVMEDPGSEQRNKIQSPMKGEDFSALFGR; Peptide with targeting and/or antimicrobial activity)”, the “Target(s)” value was “S. epidermidis and B. fragilis and P. aeruginosa and C. albicans and MRSA and E. faecalis and C. jeikeium”.
In the case of “PF-361 (NQVTEGIRLLVE; Peptide with targeting and/or antimicrobial activity)”, the “Target(s)” value is reported as “S. epidermidis; also recorded: E. coli; also recorded: E. faecalis; also recorded: C. jejuni”.
With “PF-364 (LVNGIKI; Peptide with targeting and/or antimicrobial activity)” the “Target(s)” value was “S. epidermidis; also recorded: B. fragilis; also recorded: P. aeruginosa; also recorded: C. jeikeium; also recorded: C. jejuni”.
For “PF-365 (LYKQKIQLEEELEKLKDDRQ; Peptide with targeting and/or antimicrobial activity)”, the “Target(s)” value was “S. epidermidis; also recorded: B. subtilis; also recorded: B. fragilis; also recorded: P. aeruginosa; also recorded: C. albicans”.
In the case of “PF-367 (TKTPGTFTPGTGIQKTAVPL; Peptide with targeting and/or antimicrobial activity)”, the “Target(s)” value is reported as “B. subtilis”.
With “PF-368 (MLKQTA; Peptide with targeting and/or antimicrobial activity)” the “Target(s)” value was “C. jeikeium; also recorded: C. jejuni”.
“PF-371 (TFIYNEF; Peptide with targeting and/or antimicrobial activity)” was tested, and the “Target(s)” value was “S. epidermidis; also recorded: B. fragilis; also recorded: C. jejuni”.
“PF-372 (KKQDKRIEDKYKRMKKGD; Peptide with targeting and/or antimicrobial activity)” was tested, and the “Target(s)” value was “C. jeikeium; also recorded: C. jejuni”.
“PF-384 (HISKERFEAY; Peptide with targeting and/or antimicrobial activity)” was tested, and the “Target(s)” value was “E. faecalis; also recorded: C. jeikeium; also recorded: C. jejuni”.

Same assay, conditions: microorganism(s) the targeting peptide binds; peptide binding conducted in aqueous buffers varied by peptide solubility, preferably 1x PBS
In the case of “PF-388 (ITPLLDEIGKVCIDKISK; Peptide with targeting and/or antimicrobial activity)”, the “Target(s)” value is reported as “E. faecalis; also recorded: C. jeikeium; also recorded: C. jejuni”.
For “PF-400 (VIAWKFRNKFENSGV; Peptide with targeting and/or antimicrobial activity)”, the “Target(s)” value was “S. epidermidis; also recorded: E. coli; also recorded: S. pneumoniae; also recorded: E. faecalis; also recorded: C. jeikeium”.
In the case of “PF-402 (FIDVLKSKINEFLN; Peptide with targeting and/or antimicrobial activity)”, the “Target(s)” value is reported as “S. epidermidis; also recorded: P. aeruginosa; also recorded: E. faecalis; also recorded: C. jejuni”.
In the case of “PF-409 (DLVQSILSEFKKSG; Peptide with targeting and/or antimicrobial activity)”, the “Target(s)” value is reported as “S. epidermidis and MRSA and C. jeikeium and C. jejuni”.
With “PF-412 (TSGWLGQLEQ; Peptide with targeting and/or antimicrobial activity)” the “Target(s)” value was “M. luteus; also recorded: E. coli; also recorded: C. albicans; also recorded: C. jeikeium; also recorded: C. jejuni”.
With “PF-435 (MSRWDGHSDKGEAPAGKPPMHGFGLNGENK; Peptide with targeting and/or antimicrobial activity)” the “Target(s)” value was “C. jeikeium”.
“PF-436 (KKHVLVGKQEKNG; Peptide with targeting and/or antimicrobial activity)” was tested, and the “Target(s)” value was “C. jeikeium”.
“PF-438 (QPYFQNQFKKITGYTPLQYRKEKR; Peptide with targeting and/or antimicrobial activity)” was tested, and the “Target(s)” value was “S. epidermidis; also recorded: E. coli; also recorded: S. pneumoniae; also recorded: C. jeikeium; also recorded: C. jejuni”.
In the case of “PF-441 (TQVHKMARGIDPGPANGIYR; Peptide with targeting and/or antimicrobial activity)”, the “Target(s)” value is reported as “C. jeikeium”.
“PF-463 (MVILVFSLIFIFTDNYLVYQSKSIKEDVMI; Peptide with targeting and/or antimicrobial activity)” was tested, and the “Target(s)” value was “S. epidermidis; also recorded: E. coli; also recorded: P. aeruginosa; also recorded: C. albicans; also recorded: S. pneumoniae; also recorded: E. faecalis; also recorded: M. smegmatis”.
For “PF-481 (DELYEIMDKVIEEFNKDIEQNNNNGNNEDLTENKIN; Peptide with targeting and/or antimicrobial activity)”, the “Target(s)” value was “C. jeikeium”.
In the case of “PF-483 (EDNKDKKDKKDK; Peptide with targeting and/or antimicrobial activity)”, the “Target(s)” value is reported as “P. mirabilis; also recorded: C. jeikeium; also recorded: C. jejuni”.
In the case of “PF-486 (MQKEGEEDY; Peptide with targeting and/or antimicrobial activity)”, the “Target(s)” value is reported as “S. mutans”.
“PF-487 (MYKAIAVLAMTIMAFFIFVYPFFIVGLILG; Peptide with targeting and/or antimicrobial activity)” was tested, and the “Target(s)” value was “S. mutans; also recorded: E. coli”.
In the case of “PF-488 (YPNEQGHHKNNLKNIIIE; Peptide with targeting and/or antimicrobial activity)”, the “Target(s)” value is reported as “S. mutans; also recorded: E. coli”.
With “PF-489 (KVDRVSTTITEKIK; Peptide with targeting and/or antimicrobial activity)” the “Target(s)” value was “S. mutans”.
